Reference: patent publication US8828988B2 (Tetraphase Pharmaceuticals, Inc., priority 2009, dated 2014)
Converted amounts (≈) assume the structure as drawn. Read-outs that look alike come from different tables or passages of the source.

Experiments:
[1] = test system: Staphylococcus aureus SA101, ATCC 29213, MSSA; experiment: MIC assay, SA101; type: cell-based
[2] = test system: Staphylococcus aureus SA100, ATCC 13709, MSSA, Smith strain; experiment: MIC assay, SA100; type: cell-based
[3] = test system: Staphylococcus aureus SA161, HA-MRSA, tetracycline-resistant, tet(M); experiment: MIC assay, SA161; type: cell-based
[4] = test system: Staphylococcus aureus SA158, tetracycline-resistant tet(K); experiment: MIC assay, SA158; type: cell-based
[5] = test system: Enterococcus faecalis EF103, ATCC 29212; experiment: MIC assay, EF103; type: cell-based; conditions: for MIC: Enterococcus faecalis, ATCC29212, Table 8, read-out: MIC E. faecalis ATCC 29212
[6] = test system: Enterococcus faecalis EF159, tetracycline-resistant, tet(M); experiment: MIC assay, EF159; type: cell-based
[7] = test system: Streptococcus pneumoniae SP106, ATCC 49619; experiment: MIC assay, SP106; type: cell-based
[8] = test system: Streptococcus pneumoniae SP160, tetracycline-resistant, tet(M); experiment: MIC assay, SP160; type: cell-based
[9] = test system: Escherichia coli EC107, ATCC 25922; experiment: MIC assay, EC107; type: cell-based
[10] = test system: Escherichia coli EC155, tetracycline-resistant, tet(A); experiment: MIC assay, EC155; type: cell-based
[11] = test system: Acinetobacter baumannii AB110, ATCC 19606; experiment: MIC assay, AB110; type: cell-based; conditions: ATCC19606, Table 9, read-out: MIC A.baum AB110
[12] = test system: Pseudomonas aeruginosa PA111, ATCC 27853; experiment: MIC assay, PA111; type: cell-based; conditions: ATCC27853, Table 9, read-out: MIC P. aeruginosa ATCC 27853
[13] = test system: Enterobacter cloacae EC108, ATCC 13047; experiment: MIC assay, EC108; type: cell-based; conditions: ATCC13047, Table 9, read-out: MIC Enterobacter cloaceae ATCC 13047
[14] = test system: Klebsiella pneumoniae KP109, ATCC 13883; experiment: MIC assay, KP109; type: cell-based; conditions: ATCC13883, Table 9, read-out: MIC Klebsiella pneum ATCC 13883
[15] = test system: Klebsiella pneumoniae KP153, tetracycline-resistant, tet(A), MDR, ESBL+; experiment: MIC assay, KP153; type: cell-based; conditions: Table 9, read-out: MIC Klebsiella pneum KP153 (tet)A
[16] = test system: E. coli S30 extract system, coupled in vitro transcription/translation, firefly luciferase readout; experiment: In vitro transcription/translation (TnT) assay; type: biochemical; conditions: for IC50, in vitro transcription/translation system: E. coli S30 extract, luciferase readout
[17] = in vivo; conditions: Sprague-Dawley, rat
[18] = test system: S. pneumoniae isolates (Eurofins-Medinet, recent clinical isolates); experiment: MIC50 and MIC90 analysis (Example 22)
Experimental: (§5) Frozen bacterial strains were thawed and subcultured onto Mueller Hinton Broth (MHB) or other appropriate media (Streptococcus requires blood and Haemophilus requires hemin and NAD). Following incubation overnight, the strains were subcultured onto Mueller Hinton Agar and again incubated overnight. […] Isolated colonies were selected to prepare a starting inoculum equivalent to a 0.5 McFarland standard. […] Antibiotics (stored frozen, thawed and used within 3 hours of thawing) and compounds were further diluted to the desired working concentrations.
(§6) The assays were run as follows. Fifty μL of MHB was added to wells 2-12 of a 96-well plate. One hundred μL of appropriately diluted antibiotic or compound was added to well 1. Fifty μL of antibiotics or compound was removed from well 1 and added to well 2 and the contents of well 2 mixed by pipetting up and down five times. Fifty μL of the mixture in well 2 was removed and added to well 3 and mixed as above. Serial dilutions were continued in the same manner through well 12. Fifty μL was removed from well 12 so that all contained 50 μL. Fifty μL of the working inoculum was then added to all test wells. A growth control well was prepared by adding 50 μL of working inoculum and 50 μL of MHB to an empty well. The plates were then incubated at 37° C. overnight, removed from the incubator and each well was read on a plate reading mirror. The lowest concentration (MIC) of test compound that inhibited the growth of the bacteria was recorded.
(§7) MIC, MIC50 and MIC90 values were determined according to CLSI methodology. S. pneumoniae and H. influenzae isolates were obtained from Eurofins-Medinet and are recent clinical isolates. S. aureus strains were collected from various geographical sources.

[19] = test system: H. influenzae isolates (Eurofins-Medinet, recent clinical isolates); experiment: MIC50 and MIC90 analysis (Example 22)
Experimental: as §5, §6, §7

[20] = test system: S. aureus strains collected from various geographical sources; experiment: MIC50 and MIC90 analysis (Example 22)
Experimental: as §5, §6, §7

[21] = Pharmacokinetic analysis in Sprague-Dawley rats
[22] = test system: E. coli ATCC 25922; experiment: Mouse systemic infection model, E. coli septicemia; conditions: survival after 48 hours
[23] = test system: S. aureus ATCC 13709 (Smith); experiment: Mouse systemic infection model, S. aureus septicemia; conditions: survival after 48 hours
[24] = test system: E. faecalis clinical isolates; experiment: MIC50, MIC90 and MIC range, panel of clinical isolates (Example 20); type: cell-based; conditions: 24 isolates, in µg/mL
Experimental: (§1) The assays were run as follows.
(§2) Both values, as well as the MIC range (the lowest and highest MIC value observed for a collection of organisms), were determined for the isolates listed in Table 3.

[25] = test system: S. aureus clinical isolates; experiment: as above; type: cell-based; conditions: MRSA, 30 isolates; in µg/mL
Experimental: as §1, §2

[26] = test system: S. pneumoniae clinical isolates; experiment: as above; type: cell-based; conditions: 19 isolates, in µg/mL
Experimental: as §1, §2

[27] = test system: E. coli DH10B(pBAD-tetK), expressing tet(K); experiment: MIC against recombinant E. coli expressing tet(K); type: cell-based; conditions: for MIC: Escherichia coli
Source text: (§3) Constructs were transformed into E. coli DH10B for expression. Recombinant strains were pre-induced under optimized conditions with L-arabinose prior to use as inocula in CLSI standardized MIC assays.

[28] = test system: E. coli DH10B(pBAD-tetM), expressing tet(M); experiment: MIC against recombinant E. coli expressing tet(M); type: cell-based; conditions: for MIC: Escherichia coli
Source text: as §3

[29] = test system: tet(K) strains of S. aureus; experiment: MIC, CLSI methodology, recent clinical isolates (Example 21); type: cell-based; conditions: Staphylococcus aureus, read-out: MIC against tet(K) strains of S. aureus
Experimental: as §1
(§4) The antibacterial activities of Compounds MIC values were determined according to CLSI methodology. Recent clinical isolates were obtained from Eurofins-Medinet. Antibiotics were obtained from standard commercial sources.

[30] = test system: tet(M) and tet(S) strains of E. faecalis; experiment: as above; type: cell-based; conditions: Enterococcus faecalis, read-out: MIC against tet(M) and tet(S) strains of E. faecalis
Experimental: as §1, §4

[31] = test system: tet(M) strains of S. aureus; experiment: as above; type: cell-based; conditions: Staphylococcus aureus, read-out: MIC against tet(M) strains of S. aureus
Experimental: as §1, §4

[32] = test system: tet(M) strains of S. pneumoniae; experiment: as above; type: cell-based; conditions: Streptococcus pneumoniae, read-out: MIC against tet(M) strains of S. pneumoniae
Experimental: as §1, §4

[33] = Table 8, read-out: MIC S. aureus ATCC 29213
[34] = Table 8, read-out: MIC S. aureus MRSA, tetM
[35] = Table 8, read-out: MIC S. aureus tetK
[36] = Table 8, read-out: MIC E. faecalis tetM
[37] = ATCC49619, Table 8, read-out: MIC S. pneumoniae ATCC 49619
[38] = Table 8, read-out: MIC S. pneumoniae tetM
[39] = ATCC25922, Table 8, read-out: MIC E. coli ATCC 25922
[40] = Table 8, read-out: MIC E. coli tetA
[41] = after IV dosing, single dose 1 mg/kg

SMILES: CN(C)c1ncc(O)c2c1C[C@H]1C[C@H]3[C@H](N(C)C)C(O)=C(C(N)=O)C(=O)[C@@]3(O)C(O)=C1C2=O [Compound 109]
- MIC [1, 33]: 0.031 µg/mL (≈ 0.0676 µM)
- MIC ([1]; Table 9, read-out: MIC S. aureus ATCC 29213): 0.03 µg/mL (≈ 0.0654 µM)
- MIC ([2]; Table 9, read-out: MIC S. aureus ATCC 13709): 0.13 µg/mL (≈ 0.284 µM)
- MIC ([2]; Table 12, read-out: MIC S. aureus ATCC 13709): 0.25 µg/mL (≈ 0.545 µM)
- MIC [3, 34]: 16 µg/mL (≈ 34.9 µM)
- MIC ([3]; Table 9, read-out: MIC MRSA (tet)M SA161): 32 µg/mL (≈ 69.8 µM)
- MIC [4, 35]: 2 µg/mL (≈ 4.36 µM)
- MIC ([4]; Table 9, read-out: MIC S. aureus SA158 (tet)K): 1 µg/mL (≈ 2.18 µM)
- MIC [5]: 1 µg/mL (≈ 2.18 µM)
- MIC E. faecalis ATCC 29212 ([5]; Table 9): 1 µg/mL (≈ 2.18 µM)
- MIC [6, 36]: 32 µg/mL (≈ 69.8 µM)
- MIC ([6]; Table 9, read-out: MIC E. faecalis EF159 (tet)M): 32 µg/mL (≈ 69.8 µM)
- MIC [7, 37]: 0.031 µg/mL (≈ 0.0676 µM)
- MIC ([7]; ATCC49619, Table 9, read-out: MIC S. pneum ATCC 49619): 0.03 µg/mL (≈ 0.0654 µM)
- MIC [8, 38]: 8 µg/mL (≈ 17.4 µM)
- MIC ([8]; Table 9, read-out: MIC S. pneum SP160 (tet)M): 8 µg/mL (≈ 17.4 µM)
- MIC [9, 39]: 0.13 µg/mL (≈ 0.284 µM)
- MIC ([9]; ATCC25922, Table 9, read-out: MIC E. coli ATCC 25922): 0.13 µg/mL (≈ 0.284 µM)
- MIC ([9]; ATCC25922, Table 12, read-out: MIC E. coli ATCC 25922): 0.13 µg/mL (≈ 0.284 µM)
- MIC [10, 40]: > 32 µg/mL
- MIC ([10]; Table 9, read-out: MIC E. coli EC155 (tet)A): > 32 µg/mL
- MIC [11]: 0.5 µg/mL (≈ 1.09 µM)
- MIC [12]: 8 µg/mL (≈ 17.4 µM)
- MIC [13]: 1 µg/mL (≈ 2.18 µM)
- MIC [14]: 0.5 µg/mL (≈ 1.09 µM)
- MIC [15]: > 32 µg/mL
- TnT IC50 [16]: 0.76 µg/mL
- IC50, in vitro transcription/translation system [16]: sub-μg/ml
- E. coli TnT ([16]; Table 8): 0.9 µg/mL
- AUC(0-t) ([17]; iv, 1 mg/kg): 1090 ng·h/mL
- Cmax ([17]; iv, 1 mg/kg): 603 ng/mL
- Tmax ([17]; iv, 1 mg/kg): 0.08 h
- half-life ([17]; iv, 1 mg/kg): 3 h
- bioavailability ([17]; oral, 10 mg/kg): 13%
- AUC(0-t) ([17]; po, 10 mg/kg): 1250 ng·h/mL
- Cmax ([17]; po, 10 mg/kg): 192 ng/mL
- Tmax ([17]; po, 10 mg/kg): 1.4 h
- half-life ([17]; po, 10 mg/kg): 4.51 h
- MIC Range ([18]; S. pneumoniae (n = 20)): ≦0.016-8 μg/ml
- MIC50 ([18]; Streptococcus pneumoniae): 2 µg/mL (≈ 4.36 µM)
- MIC90 ([18]; Streptococcus pneumoniae): 4 µg/mL (≈ 8.72 µM)
- MIC Range ([19]; H. influenzae (n = 12)): 0.063 to 4 µg/mL
- MIC50 ([19]; Haemophilus influenzae): 0.5 µg/mL (≈ 1.09 µM)
- MIC90 ([19]; Haemophilus influenzae): 2 µg/mL (≈ 4.36 µM)
- MIC Range ([20]; S. aureus (n = 20)): ≦0.016-1 μg/ml
- MIC50 ([20]; Staphylococcus aureus): ≤ 0.016 µg/mL
- MIC90 ([20]; Staphylococcus aureus): ≤ 0.016 µg/mL
- Clobs ([21]; IV, single dose 1 mg/kg, mean): 15.311 mL/min/kg
- Vzobs ([21]; IV, single dose 1 mg/kg, mean): 4.17697 L/kg
- half-life ([21]; IV, single dose 1 mg/kg, mean): 3.14 h
- AUC [21, 41]: 1087 ng·h/mL
- Cl [21, 41]: 15.3 mL/min/kg
- Vz [21, 41]: 4.177 L/kg
- % F. ([21]; oral bioavailability, PO 10 mg/kg vs IV 1 mg/kg): 12.74%
- PD50 in the mouse septicemia model against E. coli ([22]; CD-1 mice, IP infection, treatment one hour post-challenge): 4.3 mg/kg
- PD50 ([22]; mouse septicemia, E. coli ATCC 25922, treatment one hour post-challenge): 4.3 mg/kg
- PD50 in the mouse septicemia model against S. aureus ([23]; CD-1 mice, IP infection, intravenous treatment one hour post-challenge): < 0.3 mg/kg
- PD50 ([23]; mouse septicemia, S. aureus ATCC 13709, intravenous treatment one hour post-challenge): <0.30 mg/kg

SMILES: CN(C)CC(C)(C)CNc1nc(F)c2c(c1O)C(=O)C1=C(O)[C@]3(O)C(=O)C(C(N)=O)=C(O)[C@@H](N(C)C)[C@@H]3C[C@@H]1C2 [Compound 133]
- MIC [1, 33]: 1 µg/mL (≈ 1.78 µM)
- MIC [3, 34]: 2 µg/mL (≈ 3.56 µM)
- MIC [4, 35]: 0.5 µg/mL (≈ 0.89 µM)
- MIC [5]: 0.5 µg/mL (≈ 0.89 µM)
- MIC [6, 36]: 2 µg/mL (≈ 3.56 µM)
- MIC [7, 37]: 0.5 µg/mL (≈ 0.89 µM)
- MIC [8, 38]: 1 µg/mL (≈ 1.78 µM)
- MIC [9, 39]: 1 µg/mL (≈ 1.78 µM)
- MIC [10, 40]: 8 µg/mL (≈ 14.2 µM)
- MIC Range [24]: 0.25-4
- MIC Range [25]: 0.5-8
- MIC Range [26]: <=0.016-0.25
- MIC ([27]; read-out: MIC, TetK Induced): 1 µg/mL
- MIC ([27]; read-out: MIC, Uninduced): 2 µg/mL
- MIC ratio, TetK induced to uninduced ([27]; ratio of TetK induced to uninduced MIC): 0.5
- Effect of expression of (tet)K on activity ([27]; result in words): unaffected
- MIC ([28]; read-out: MIC, TetM induced): 2 µg/mL
- MIC ([28]; read-out: MIC, Uninduced): 0.5 µg/mL
- Ratio (TetM induced / Uninduced) ([28]; ratio of MICs): 4
- Effect of expression of (tet)M on activity ([28]; result in words): minimally affected
- TnT IC50 [16]: 0.56 µg/mL
- IC50, in vitro transcription/translation system [16]: 0.6 µg/mL (≈ 1.07 µM)
- MIC [29]: ≤ 1 µg/mL
- MIC [30]: ≤ 4 µg/mL
- MIC [31]: ≤ 8 µg/mL
- MIC [32]: ≤ 0.25 µg/mL
